From patent US20110136916A1, “6-SHOGAOL FOR USING IN A METHOD FOR THE TREATMENT OF LEUKEMIA” (China Pharmaceutical University, priority 2009, published 2011)
“Also recorded” adds a separate entry of the source. Read-outs that look alike come from different tables or passages of the source.

What was measured:
melanoma SK-MEL-2 cells = details: cited from earlier work
[1] = system: human ovarian cancer SK-OV-3 cells; details: cited from earlier work
[2] = system: peripheral blood lymphocytes (PBMC) of healthy volunteers; assay: Annexin V/PI apoptosis of PBMC from healthy volunteers; type: cell-based, human; details: 24 hours
Method: After application by the research group and approval by the Ethics Committee of the hospital, the leukemia patients (healthy volunteers) signed the informed consent and their fresh blood was collected and transferred into heparin anticoagulation tubes, then the same volume of serum free D-Hank buffer (preheated at 37° C.) was added to re-suspend the cells, and the suspension was added to the pre-laid human lymphocyte separating medium (preheated at 37° C.), and the volume ratio between the lymphocyte separating medium and the cell suspension should be no lower than 1:1, and the mixture was centrifuged at room temperature (20-30° C.) at 500×g by a horizontal centrifuge for 30 minutes. The upper layer plasma was removed and the white fog layer in the middle was carefully collected and transferred to 5 mL (or 1-2 times of the volume) PBS (or serum free buffer for cell culture), then it was centrifuged at 200×g or 1000 rpm for 10 minutes at room temperature (20-30° C.), and the supernatant was removed, and the obtained precipitation was the peripheral blood lymphocytes (PBMC). The cells were rinsed twice according to the above-mentioned operations at 500×g by the horizontal centrifuge for 10 minutes at room temperature (20-30° C.), subsequently the cells were collected and their cell vitality was detected by using dye exclusion method for living cells (Trypan blue).
The cells were added to a 24-well plate in 3×10^5 cells/mL/well and different concentrations of 6-shogaol (10 and 20 μM) for treatment for 24 hours after they were incubated for 24 hours. Negative control group (the group without drug) and the treatment group with 6-shogaol were set up for PBMCs from different individuals respectively. After the cells were treated with 6-shogaol for 24 hours, they were transferred into 10 mL glass centrifuge tubes and centrifuged at 500 rpm (or 100×g) for 5 minutes to remove the supernatant. The cells were then rinsed with 0.01 M PBS at 500 rpm (or 100×g) for 5 minutes twice. Subsequently, after adding binding solution and staining according to the directions for use of Annexin V/PI double staining kit (BD Company), flow cytometry analysis (Becton Dickinson FACScan Flow Cytometer) was carried out. The FACS data were analyzed by professional operators of the flow cytometer by using FLOWJO software (Tree Star, Calif.) software, the apoptotic rate was counted by the sum of early apoptosis and late apoptosis, and the results were shown in Table 4 and Table 5.

[3] = system: human chronic granulocytic leukemia K562; assay: MTT anti-proliferation, K562; type: cell-based; details: for IC50: K562, MTT, n = 3; for growth inhibition (activities of cells vs control): K562, 1-20 μM
Method: (§1) Cells in logarithmic growth phase were collected and then inoculated in 1˜2×10^4 cells/well in a 96-well plate respectively according to the sizes of cells and whether they attached to the wall, the cells were centrifuged and the supernatant was removed after growing for 24 hours, and then drug administration was carried out according to the groups as below: the drug group and the drug free group were set up for tumor cells (the concentrations ranged from 1˜20 μM), 5 or 6 duplicates were set for each group and the cells were incubated for 24 or 72 hours. The supernatant was removed and 100 μl serum free culture solution containing 0.5 mg/ml MTT (tetrazolium) was added for further incubation for 4 hours, subsequently 100 μl DMSO (dimethyl sulfoxide) was added and the plate was kept on the micro-shaker for 10 minutes, and the OD value was determined on a micro-plate reader at the wavelength of 570 nm. Evaluations on the toxicity were carried out on normal human cell line LO-2 and each test was repeated for three times.

[4] = system: human promyelocytic leukemia cell HL-60; assay: MTT anti-proliferation, HL-60; type: cell-based; details: for growth inhibition (activities of cells vs control): HL-60, 1-20 μM; for IC50: HL-60, MTT, n = 3
Method: as §1

[5] = system: colon carcinoma HCT15 cells; details: cited from earlier work
[6] = system: human acute T cell leukemic cell Jurkat; assay: MTT anti-proliferation, Jurkat; type: cell-based; details: for growth inhibition (activities of cells vs control): 1-20 μM; for IC50: MTT
Method: as §1

[7] = system: human leukemia Jurkat cells; assay: Annexin V/PI flow cytometry apoptosis of Jurkat cells; type: cell-based; details: for Apoptotic rate: Jurkat
Method: Jurkat cells in logarithmic growth phase of growth were collected (3−10×10^5) and inoculated to a 24-well plate in 3×10^5 cells/mL/well, then after incubation for 24 hours, different concentrations of 6-shogaol (0, 1, 2.5, 5, 10 and 15 μM) were added for treatment for 24 hours and also 6-shogaol at a concentration of 15 μM were added for treatment at different durations (0, 2, 4, 6, 12 and 24 h). After reacting with 6-shogaol under different conditions, the cells were collected into 1 mL centrifuge tubes and then centrifuged at 500 rpm (or 100×g) for 5 minutes, the supernatant was removed and the cells were rinsed with 0.01 M PBS at 500 rpm (or 100×g) for 5 minutes twice, and the flow cytometry analysis (Becton Dickinson FACScan Flow Cytometer) was carried out after adding binding solution and staining according to the directions for use of Annexin V/PI double staining kit (BD Company). The FACS data were analyzed by professional operators of the flow cytometer by using FLOWJO software (Tree Star, Calif.) software, the apoptotic rate was counted by the sum of early apoptosis and late apoptosis, and the results were shown in Table 2 and Table 3.

[8] = 24 hours, read-out: Mean IC50 after 24 hours
[9] = 72 hours, read-out: Mean IC50 after 72 hours

SMILES: CCCCC/C=C/C(=O)CCc1ccc(O)c(OC)c1 [6-shogaol]
- anti-tumor activities (melanoma SK-MEL-2 cells): certain anti-tumor activities
- anti-tumor activities [1]: certain anti-tumor activities
- effect on apoptosis of PBMC of healthy volunteers (t-test) ([2]; 10 cases of healthy volunteers, 10 and 20 μM): no significant difference; also recorded: no significant effects
- Apoptotic rate of 10 μM 6-shogaol ([2]; PBMC of healthy volunteer N1, 10 μM): 17.5 ± 0.8%
- Apoptotic rate of 20 μM 6-shogaol ([2]; PBMC of healthy volunteer N1, 20 μM): 22.8 ± 0.6%
- Apoptotic rate of 10 μM 6-shogaol ([2]; PBMC of healthy volunteer N2, 10 μM): 13.6 ± 0.9%
- Apoptotic rate of 20 μM 6-shogaol ([2]; PBMC of healthy volunteer N2, 20 μM): 12.3 ± 1.4%
- Apoptotic rate of 10 μM 6-shogaol ([2]; PBMC of healthy volunteer N3, 10 μM): 27.6 ± 2.4%
- Apoptotic rate of 20 μM 6-shogaol ([2]; PBMC of healthy volunteer N3, 20 μM): 31.9 ± 1.7%
- Apoptotic rate of 10 μM 6-shogaol ([2]; PBMC of healthy volunteer N4, 10 μM): 8.5 ± 0.8%
- Apoptotic rate of 20 μM 6-shogaol ([2]; PBMC of healthy volunteer N4, 20 μM): 9.7 ± 1.2%
- Apoptotic rate of 10 μM 6-shogaol ([2]; PBMC of healthy volunteer N5, 10 μM): 16.6 ± 4.8%
- Apoptotic rate of 20 μM 6-shogaol ([2]; PBMC of healthy volunteer N5, 20 μM): 12.8 ± 3.6%
- Apoptotic rate of 10 μM 6-shogaol ([2]; PBMC of healthy volunteer N6, 10 μM): 14.6 ± 0.9%
- Apoptotic rate of 20 μM 6-shogaol ([2]; PBMC of healthy volunteer N6, 20 μM): 12.3 ± 1.4%
- Apoptotic rate of 10 μM 6-shogaol ([2]; PBMC of healthy volunteer N7, 10 μM): 14.6 ± 1.4%
- Apoptotic rate of 20 μM 6-shogaol ([2]; PBMC of healthy volunteer N7, 20 μM): 15.9 ± 0.7%
- Apoptotic rate of 10 μM 6-shogaol ([2]; PBMC of healthy volunteer N8, 10 μM): 18.5 ± 1.8%
- Apoptotic rate of 20 μM 6-shogaol ([2]; PBMC of healthy volunteer N8, 20 μM): 21.7 ± 1.6%
- Apoptotic rate of 10 μM 6-shogaol ([2]; PBMC of healthy volunteer N9, 10 μM): 12.5 ± 2.9%
- Apoptotic rate of 20 μM 6-shogaol ([2]; PBMC of healthy volunteer N9, 20 μM): 14.8 ± 0.9%
- Apoptotic rate of 10 μM 6-shogaol ([2]; PBMC of healthy volunteer N10, 10 μM): 12.9 ± 1.3%
- Apoptotic rate of 20 μM 6-shogaol ([2]; PBMC of healthy volunteer N10, 20 μM): 16.5 ± 0.7%
- IC50 ([3]; Homo sapiens, K562, 24 h, 24 hours, read-out: Mean IC50 after 24 hours): < 10 µM
- IC50 ([3]; Homo sapiens, K562, 72 h, 72 hours, read-out: Mean IC50 after 72 hours): < 5 µM
- growth inhibition (activities of cells vs control) ([3]; 24 hours, FIG. 5): significantly decreased
- growth inhibition (activities of cells vs control) ([3]; 72 hours, FIG. 9): significantly decreased
- IC50 [3, 8]: 8.5 ± 0.8 µM
- IC50 [3, 9]: 5 ± 0.62 µM
- growth inhibition (activities of cells vs control) ([4]; 24 hours, FIG. 2): significantly decreased
- growth inhibition (activities of cells vs control) ([4]; 72 hours, FIG. 6): significantly decreased
- IC50 [4, 8]: 6.93 ± 1.28 µM
- IC50 [4, 9]: 3.7 ± 0.25 µM
- IC50 ([4]; Homo sapiens, HL-60, 24 h, 24 hours, read-out: Mean IC50 after 24 hours): < 10 µM
- IC50 ([4]; Homo sapiens, HL-60, 72 h, 72 hours, read-out: Mean IC50 after 72 hours): < 5 µM
- anti-tumor activities [5]: certain anti-tumor activities
- growth inhibition (activities of cells vs control) ([6]; 24 hours, FIG. 3): significantly decreased
- growth inhibition (activities of cells vs control) ([6]; 72 hours, FIG. 7): significantly decreased
- IC50 ([6]; Homo sapiens, 24 h, 24 hours, n = 3, read-out: Mean IC50 after 24 hours): < 10 µM
- IC50 ([6]; Homo sapiens, 72 h, 72 hours, n = 3, read-out: Mean IC50 after 72 hours): < 5 µM
- IC50 ([6]; 24 hours, n = 3, read-out: Mean IC50 after 24 hours): 5.6 ± 0.4 µM
- IC50 ([6]; 72 hours, n = 3, read-out: Mean IC50 after 72 hours): 3.3 ± 0.3 µM
- Apoptotic rate ([7]; 1 μM, 24 hours, n = 3): 11.2 ± 0.9bd %
- Apoptotic rate ([7]; 2.5 μM, 24 hours, n = 3): 17.8 ± 1.4bd %
- Apoptotic rate ([7]; 5 μM, 24 hours, n = 3): 25.9 ± 3.2bc %
- Apoptotic rate ([7]; 10 μM, 24 hours, n = 3): 48.7 ± 3.1bd %
- Apoptotic rate ([7]; 15 μM, 2 hours, n = 3): 7.7 ± 2.1%
- Apoptotic rate ([7]; 15 μM, 4 hours, n = 3): 14.6 ± 2.5ac %
- Apoptotic rate ([7]; 15 μM, 6 hours, n = 3): 28.5 ± 3.3bd %
- Apoptotic rate ([7]; 15 μM, 12 hours, n = 3): 45.3 ± 2.6bd %
- Apoptotic rate ([7]; 15 μM, 24 hours, n = 3 (Table 2)): 73.2 ± 2.8bd %
- Apoptotic rate ([7]; 15 μM, 24 hours, n = 3 (Table 3)): 72.3 ± 2.4bd %
- induction of apoptosis of Jurkat cells (t-test) ([7]; summary statement, concentration and time dependent): significantly induce the apoptosis
